Molecular target: T1, Dihydrofolate reductase (Mus musculus) (UniProt P00375)
T1 sequence (whole entry): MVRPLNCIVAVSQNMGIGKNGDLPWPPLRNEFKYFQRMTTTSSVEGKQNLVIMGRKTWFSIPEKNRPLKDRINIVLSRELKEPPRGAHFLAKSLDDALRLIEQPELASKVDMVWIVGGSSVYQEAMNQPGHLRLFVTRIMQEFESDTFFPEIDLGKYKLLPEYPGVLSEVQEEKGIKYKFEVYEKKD
Assay: Inhibition of dihydrofolate reductase from L1210 leukemia tumors

| SMILES | Log 1/C |
| --- | --- |
| CC1(C)N=C(N)N=C(N)N1c1ccc(CCCCc2ccc(Cl)cc2Cl)cc1 | 7.92 |
| CC1(C)N=C(N)N=C(N)N1c1ccc(OCc2ccccc2C(=O)Nc2ccc(S(=O)(=O)F)cc2)c(Cl)c1 | 7.24 |
| CC1(C)N=C(N)N=C(N)N1c1ccc(OCc2ccc(Cl)cc2S(=O)(=O)F)c(Cl)c1 | 7.52 |
| CC1(C)N=C(N)N=C(N)N1c1ccc(OCc2cccc(C(=O)Nc3cccc(S(=O)(=O)F)c3)c2)c(Cl)c1 | 7.24 |
| CC1(C)N=C(N)N=C(N)N1c1ccc(CCCCc2cc(Cl)ccc2S(=O)(=O)F)c(Cl)c1 | 7.06 |
| CC1(C)N=C(N)N=C(N)N1c1ccc(OCCCCCCOc2ccc(S(=O)(=O)F)cc2)c(Cl)c1 | 7.46 |
| Cc1cc(NC(=O)NCc2ccc(N3C(N)=NC(N)=NC3(C)C)cc2)ccc1S(=O)(=O)F | 7.72 |
| CC1(C)N=C(N)N=C(N)N1c1ccc(OCc2ccc(Cl)c(S(=O)(=O)F)c2)c(Cl)c1 | 8 |
| Cc1cc(NC(=O)NCCOc2ccc(N3C(N)=NC(N)=NC3(C)C)cc2Cl)ccc1S(=O)(=O)F | 7.82 |
| CC1(C)N=C(N)N=C(N)N1c1ccc(OCc2cc(S(=O)(=O)F)ccc2Cl)c(Cl)c1 | 7.38 |
| CC1(C)N=C(N)N=C(N)N1c1ccc(CCCCc2ccc(S(=O)(=O)F)cc2)cc1 | 7.7 |
| CC1(C)N=C(N)N=C(N)N1c1ccc(OCCCOc2ccc(S(=O)(=O)F)cc2)c(Cl)c1 | 7.07 |
| CC1(C)N=C(N)N=C(N)N1c1ccc(SCC(=O)Nc2ccc(S(=O)(=O)F)cc2)c(Cl)c1 | 7.42 |
| CC1(C)N=C(N)N=C(N)N1c1cccc(CCc2ccc(S(=O)(=O)F)cc2)c1 | 8.1 |
| Cc1cc(NC(=O)NCCCOc2ccc(N3C(N)=NC(N)=NC3(C)C)cc2Cl)ccc1S(=O)(=O)F | 8.06 |
| CC1(C)N=C(N)N=C(N)N1c1ccc(CCCCc2ccc(Cl)c(S(=O)(=O)F)c2)c(Cl)c1 | 8.11 |
| CC1(C)N=C(N)N=C(N)N1c1cccc(CCCCc2ccc(S(=O)(=O)F)cc2)c1 | 8.1 |
| CC1(C)N=C(N)N=C(N)N1c1ccc(CCc2ccc(S(=O)(=O)F)c(Cl)c2)c(Cl)c1 | 7.85 |
| CC1(C)N=C(N)N=C(N)N1c1ccc(OCCCCOc2ccc(S(=O)(=O)F)cc2)c(Cl)c1 | 7.57 |
| CN(C)C(=O)c1cccc(NC(=O)NCc2cccc(N3C(N)=NC(N)=NC3(C)C)c2)c1 | 7.77 |
| CC1(C)N=C(N)N=C(N)N1c1ccc(CCCCc2ccccc2)c(Cl)c1 | 7.92 |
| CC1(C)N=C(N)N=C(N)N1c1ccc(OCc2ccc(C(=O)Nc3ccc(S(=O)(=O)F)cc3)cc2)c(Cl)c1 | 6.92 |

| SMILES | Log 1/C |
| --- | --- |
| CC1(C)N=C(N)N=C(N)N1c1ccc(OCc2ccc(S(=O)(=O)F)c(Cl)c2)c(Cl)c1 | 7.43 |
| CC1(C)N=C(N)N=C(N)N1c1cccc(CCCCc2cccc(S(=O)(=O)F)c2)c1 | 8.1 |
| CC1(C)N=C(N)N=C(N)N1c1ccc(OCc2cc(Cl)ccc2S(=O)(=O)F)c(Cl)c1 | 7.27 |
| Cc1cc(S(=O)(=O)F)ccc1COc1ccc(N2C(N)=NC(N)=NC2(C)C)cc1Cl | 7.38 |
| CC1(C)N=C(N)N=C(N)N1c1cc(Cl)c(OCC(=O)Nc2ccc(S(=O)(=O)F)cc2)c(Cl)c1 | 7.74 |
| COc1cccc(NC(=O)NCc2cccc(N3C(N)=NC(N)=NC3(C)C)c2)c1 | 8.02 |
| CC1(C)N=C(N)N=C(N)N1c1cccc(OCCCCOc2ccc(S(=O)(=O)F)cc2)c1 | 7.49 |
| CC1(C)N=C(N)N=C(N)N1c1cccc(OCC(=O)Nc2ccc(S(=O)(=O)F)cc2)c1 | 6.92 |
| CC1(C)N=C(N)N=C(N)N1c1ccc(CCc2ccccc2)cc1 | 7.89 |
| CC1(C)N=C(N)N=C(N)N1c1ccc(CNC(=O)Nc2ccc(S(=O)(=O)F)cc2)cc1 | 7.35 |
| CC1(C)N=C(N)N=C(N)N1c1ccc(SCC(=O)Nc2ccc(S(=O)(=O)F)cc2)cc1 | 7.52 |
| CC1(C)N=C(N)N=C(N)N1c1ccc(OCc2ccccc2S(=O)(=O)F)c(Cl)c1 | 7.43 |
| CC1(C)N=C(N)N=C(N)N1c1ccc(OCCCNC(=O)Nc2cccc(S(=O)(=O)F)c2)cc1 | 7.32 |
| CC1(C)N=C(N)N=C(N)N1c1ccc(CCCCCCc2ccc(S(=O)(=O)F)cc2)cc1 | 7.12 |
| CC1(C)N=C(N)N=C(N)N1c1ccc(OCCCNC(=O)c2ccc(S(=O)(=O)F)cc2)c(Cl)c1 | 7.34 |
| CCN(CC)C(=O)NCc1cccc(N2C(N)=NC(N)=NC2(C)C)c1 | 6.11 |
| CC1(C)N=C(N)N=C(N)N1c1cccc(CNC(=O)Nc2cccc(Cl)c2)c1 | 8.05 |
| CC1(C)N=C(N)N=C(N)N1c1ccc(CCC(=O)Nc2cccc(S(=O)(=O)F)c2)cc1 | 7.74 |
| CC1(C)N=C(N)N=C(N)N1c1ccc(CCC(=O)Nc2ccc(S(=O)(=O)F)cc2)c(Cl)c1 | 7.62 |
| CC1(C)N=C(N)N=C(N)N1c1ccc(Cl)c(OCCCCCOc2ccc(S(=O)(=O)F)cc2)c1 | 6.72 |
| CC1(C)N=C(N)N=C(N)N1c1cccc(CNC(=O)Nc2cccc(C#N)c2)c1 | 8.19 |
| CC1(C)N=C(N)N=C(N)N1c1ccc(OCC(=O)Nc2ccc(S(=O)(=O)F)cc2)c(Cl)c1 | 7.43 |

| SMILES | Log 1/C |
| --- | --- |
| CC1(C)N=C(N)N=C(N)N1c1ccc(OCCCCC(=O)Nc2ccc(S(=O)(=O)F)cc2)c(Cl)c1 | 7.24 |
| CC1(C)N=C(N)N=C(N)N1c1ccc(Cl)c(CCCCc2ccc(S(=O)(=O)F)cc2)c1 | 6.77 |
| CC1(C)N=C(N)N=C(N)N1c1cccc(OCCOc2ccc(S(=O)(=O)F)cc2)c1 | 7.82 |
| CC1(C)N=C(N)N=C(N)N1c1cccc(CCCCc2cc(Cl)ccc2S(=O)(=O)F)c1 | 7.96 |
| CC1(C)N=C(N)N=C(N)N1c1ccc(OCc2cccc(S(=O)(=O)F)c2Cl)c(Cl)c1 | 7.49 |
| CC(Oc1ccc(N2C(N)=NC(N)=NC2(C)C)cc1Cl)C(=O)Nc1ccc(S(=O)(=O)F)cc1 (configuration not stated) | 7.13 |
| CC1(C)N=C(N)N=C(N)N1c1ccc(OCc2cccc(Cl)c2S(=O)(=O)F)c(Cl)c1 | 7.42 |
| CC1(C)N=C(N)N=C(N)N1c1cccc(CCCCc2ccc(Cl)cc2Cl)c1 | 8.03 |
| CC1(C)N=C(N)N=C(N)N1c1ccc(CCCCc2ccccc2S(=O)(=O)F)c(Cl)c1 | 7.77 |
| CC1(C)N=C(N)N=C(N)N1c1ccc(CCc2ccc(S(=O)(=O)F)cc2Cl)c(Cl)c1 | 8.33 |
| CC1(C)N=C(N)N=C(N)N1c1ccc(OCc2c(Cl)cccc2S(=O)(=O)F)c(Cl)c1 | 7.72 |
| CC1(C)N=C(N)N=C(N)N1c1ccc(CCc2cccc(Cl)c2S(=O)(=O)F)c(Cl)c1 | 8.3 |
| CC1(C)N=C(N)N=C(N)N1c1ccc(OCCCC(=O)Nc2ccc(S(=O)(=O)F)cc2)c(Cl)c1 | 7.15 |
| CC1(C)N=C(N)N=C(N)N1c1ccc(OCc2ccc(COc3ccc(S(=O)(=O)F)cc3)cc2)c(Cl)c1 | 6.82 |
| CC1(C)N=C(N)N=C(N)N1c1cccc(CNC(=O)N2CCOCC2)c1 | 6.43 |
| CC1(C)N=C(N)N=C(N)N1c1cccc(CNC(=O)Nc2cccc([N+](=O)[O-])c2)c1 | 8.1 |
| CC1(C)N=C(N)N=C(N)N1c1ccc(CCC(=O)Nc2ccc(S(=O)(=O)F)cc2)cc1 | 7.6 |
| CC1(C)N=C(N)N=C(N)N1c1ccc(CNC(=O)Nc2ccc(S(=O)(=O)F)cc2)c(Cl)c1 | 7.92 |
| CC1(C)N=C(N)N=C(N)N1c1ccc(OCCCCNC(=O)c2ccc(S(=O)(=O)F)cc2)c(Cl)c1 | 7.66 |
| CC1(C)N=C(N)N=C(N)N1c1ccc(OCCCC(=O)Nc2cccc(S(=O)(=O)F)c2)c(Cl)c1 | 7.17 |
| CC1(C)N=C(N)N=C(N)N1c1ccc(OCC(=O)Nc2cccc(S(=O)(=O)F)c2)c(Cl)c1 | 7.72 |
| CC1(C)N=C(N)N=C(N)N1c1ccc(OCc2ccc(S(=O)(=O)F)cc2)c(Cl)c1 | 7.58 |

| SMILES | Log 1/C |
| --- | --- |
| CC1(C)N=C(N)N=C(N)N1c1ccc(Cl)c(OCCCCOc2ccc(S(=O)(=O)F)cc2)c1 | 7.17 |
| CC1(C)N=C(N)N=C(N)N1c1ccc(CC(C(=O)Nc2cccc(S(=O)(=O)F)c2)c2ccccc2)cc1 (configuration not stated) | 6.89 |
| CC1(C)N=C(N)N=C(N)N1c1ccc(CCCCc2ccc(S(=O)(=O)F)c(Cl)c2)c(Cl)c1 | 7.7 |
| CC1(C)N=C(N)N=C(N)N1c1ccc(Cl)c(CCc2ccc(S(=O)(=O)F)cc2)c1 | 5.82 |
| CC1(C)N=C(N)N=C(N)N1c1ccc(SCC(=O)Nc2cccc(S(=O)(=O)F)c2)c(Cl)c1 | 7.66 |
| CC1(C)N=C(N)N=C(N)N1c1ccc(CCc2ccc(Cl)c(S(=O)(=O)F)c2)c(Cl)c1 | 8.27 |
| CC1(C)N=C(N)N=C(N)N1c1cccc(OCCCOc2ccc(S(=O)(=O)F)cc2)c1 | 7.96 |
| CC1(C)N=C(N)N=C(N)N1c1cccc(CCCCc2ccc(S(=O)(=O)F)c(Cl)c2)c1 | 7.7 |
| CC1(C)N=C(N)N=C(N)N1c1ccc(Cl)c(OCCOc2ccc(S(=O)(=O)F)cc2)c1 | 7.27 |
| CC1(C)N=C(N)N=C(N)N1c1ccc(CCCCc2ccc(S(=O)(=O)F)cc2Cl)cc1 | 7.96 |
| CC1(C)N=C(N)N=C(N)N1c1ccc(OCc2cccc(C(=O)Nc3ccc(S(=O)(=O)F)cc3)c2)c(Cl)c1 | 6.92 |
| CC1(C)N=C(N)N=C(N)N1c1ccc(OCCCCCOc2ccc(S(=O)(=O)F)cc2)c(Cl)c1 | 7.57 |
| CC1(C)N=C(N)N=C(N)N1c1cccc(CCCCc2ccc(Cl)c(S(=O)(=O)F)c2)c1 | 8.37 |
| CC1(C)N=C(N)N=C(N)N1c1ccc(OCCCCNC(=O)Nc2cccc(S(=O)(=O)F)c2)c(Cl)c1 | 7.7 |
| CC1(C)N=C(N)N=C(N)N1c1ccc(OCCCNC(=O)Nc2ccc(S(=O)(=O)F)cc2)c(Cl)c1 | 7.68 |
| CC1(C)N=C(N)N=C(N)N1c1ccc(OCc2cccc(S(=O)(=O)F)c2)c(Cl)c1 | 7.72 |
| CC1(C)N=C(N)N=C(N)N1c1ccc(OCCOCCOc2ccc(S(=O)(=O)F)cc2)c(Cl)c1 | 7.14 |
| CN(C(=O)COc1ccc(N2C(N)=NC(N)=NC2(C)C)cc1Cl)c1ccc(S(=O)(=O)F)cc1 | 7.47 |
| CC1(C)N=C(N)N=C(N)N1c1ccc(OCc2ccc(S(=O)(=O)F)cc2Cl)c(Cl)c1 | 7.44 |
| CC1(C)N=C(N)N=C(N)N1c1ccc(OCc2ccc(C(=O)Nc3cccc(S(=O)(=O)F)c3)cc2)c(Cl)c1 | 7.41 |
| CC1(C)N=C(N)N=C(N)N1c1ccc(Cl)c(OCCCOc2ccc(S(=O)(=O)F)cc2)c1 | 7.51 |
